# Test results from publication PMC8148554, “Characterization and Regulation of the Acetolactate Synthase Genes Involved in Acetoin Biosynthesis in Acetobacter pasteurianus” (Foods, 2021).
# Target: T1, AlsS2 (Acetobacter pasteurianus, UniProt A0A401X088)
# T1 construct: gene NBRC3278_0356; full length, gene 1695 bp (564 residues with stop codon in the gene); pET-22b(+) NdeI/XhoI, E. coli BL21(DE3), His tag (C-terminal by cloning, no stop in primer); about 59 kDa
# T1 sequence (A0A401X088 1-564): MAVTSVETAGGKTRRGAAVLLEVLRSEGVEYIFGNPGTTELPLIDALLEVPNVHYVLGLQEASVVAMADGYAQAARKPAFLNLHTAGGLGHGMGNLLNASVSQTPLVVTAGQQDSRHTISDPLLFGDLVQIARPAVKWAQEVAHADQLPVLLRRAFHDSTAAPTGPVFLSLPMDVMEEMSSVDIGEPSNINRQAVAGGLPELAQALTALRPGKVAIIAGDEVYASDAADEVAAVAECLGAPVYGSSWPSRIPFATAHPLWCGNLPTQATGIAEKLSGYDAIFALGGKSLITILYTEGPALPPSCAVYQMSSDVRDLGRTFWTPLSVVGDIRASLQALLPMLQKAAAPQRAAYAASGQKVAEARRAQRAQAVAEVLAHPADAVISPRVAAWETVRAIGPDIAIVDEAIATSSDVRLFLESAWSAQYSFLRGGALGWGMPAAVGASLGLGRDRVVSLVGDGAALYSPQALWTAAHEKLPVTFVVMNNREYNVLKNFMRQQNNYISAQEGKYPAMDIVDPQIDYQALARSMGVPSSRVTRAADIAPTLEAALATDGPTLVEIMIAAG
# Assay: GC detection of benzaldehyde formed
# Format: biochemical
# Details: 10 mM benzoylformate, 0.5 mM MgCl2, 1 mM TPP, 100 mM sodium phosphate pH 7.0, 37 °C, 10 h
smiles,measurement,value
O=C(O)C(=O)c1ccccc1 [benzoylformate],GC detection of benzaldehyde formed,Benzaldehyde was detected in the reaction mixture
